Measurements: ChEMBL document CHEMBL1201862, “PubChem BioAssay data set” (2004)
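Exposure lasted 48 hours, with cells grown in 96-well plates and compounds tested at five concentrations. GI50: concentration for 50% inhibition of growth.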 Active and inactive are the calls of the source. No stated cut-off is given here; in the data, active = GI50 up to about 1.1 µM and inactive = higher.

How the values were obtained:
Assay in all cases: DTP human tumour cell line panel, 48 h
SNB-75 = test system: SNB-75
SK-OV-3 = test system: SK-OV-3
NCI-H226 = test system: NCI-H226
NCI-H460 = test system: NCI-H460
CCRF-CEM = test system: CCRF-CEM
U-251 = test system: U-251
MOLT-4 = test system: MOLT-4
IGROV-1 = test system: IGROV-1
OVCAR-8 = test system: OVCAR-8
OVCAR-4 = test system: OVCAR-4
SK-MEL-2 = test system: SK-MEL-2
KM12 = test system: KM12
SK-MEL-28 = test system: SK-MEL-28
HOP-92 = test system: HOP-92
SK-MEL-5 = test system: SK-MEL-5
SF-295 = test system: SF-295
SW-620 = test system: SW-620
RPMI-8226 = test system: RPMI-8226
HCT-116 = test system: HCT-116
SN12C = test system: SN12C

SMILES | GI50 (SNB-75) | GI50 (SK-OV-3) | GI50 (NCI-H226) | GI50 (NCI-H460) | GI50 (CCRF-CEM) | GI50 (U-251) | GI50 (MOLT-4) | GI50 (IGROV-1) | GI50 (OVCAR-8) | GI50 (OVCAR-4) | GI50 (SK-MEL-2) | GI50 (KM12) | GI50 (SK-MEL-28) | GI50 (HOP-92) | GI50 (SK-MEL-5) | GI50 (SF-295) | GI50 (SW-620) | GI50 (RPMI-8226) | GI50 (HCT-116) | GI50 (SN12C)
CN(C)c1ccc(/C=C2\C[C@H]3[C@@H]4CCc5cc(O)ccc5[C@H]4CC[C@]3(C)C2=O)cc1 | 28.9 µM (inactive) | > 100 µM (inactive) | 25.1 µM (inactive) | > 100 µM (inactive) | > 100 µM (inactive) | 36 µM (inactive) | > 100 µM (inactive) | 48 µM (inactive) | 95.1 µM (inactive) | > 100 µM (inactive) | 35.6 µM (inactive) | > 100 µM (inactive) | > 100 µM (inactive) | 61.5 µM (inactive) | > 100 µM (inactive) | 32.6 µM (inactive) | > 100 µM (inactive) | > 100 µM (inactive) | – | –
CCn1c2ccccc2c2cc(NC(=O)c3c(C)[nH]c(=O)[nH]c3=S)ccc21 | > 100 µM (inactive) | > 100 µM (inactive) | 33 µM (inactive) | 58.3 µM (inactive) | 29.2 µM (inactive) | 31.5 µM (inactive) | 24.3 µM (inactive) | > 10 µM (inactive) | > 100 µM (inactive) | > 100 µM (inactive) | 51.3 µM (inactive) | 18.5 µM (inactive) | 33.3 µM (inactive) | > 100 µM (inactive) | 42.1 µM (inactive) | 61.4 µM (inactive) | 31.7 µM (inactive) | 40.6 µM (inactive) | 43.3 µM (inactive) | 69 µM (inactive)
COc1cccc(NC(=O)CC(=O)NNCC(=O)Nc2nnc(-c3ccc(N(CCC#N)S(=O)(=O)c4ccccc4)cc3)s2)c1 | – | 30.5 µM (inactive) | > 100 µM (inactive) | – | – | 76.9 µM (inactive) | 35.7 µM (inactive) | 96.4 µM (inactive) | > 100 µM (inactive) | 65.8 µM (inactive) | > 100 µM (inactive) | 63.5 µM (inactive) | 55.7 µM (inactive) | 49.2 µM (inactive) | 37.6 µM (inactive) | 87.1 µM (inactive) | > 100 µM (inactive) | 66.4 µM (inactive) | 63.7 µM (inactive) | 89.7 µM (inactive)
COc1ccc(/C(Cl)=C(\C=O)c2ccc(Cl)c(Cl)c2)cc1OC | 0.294 µM (active) | 38.5 µM (inactive) | 4.84 µM (inactive) | 3.4 µM (inactive) | 2.73 µM (inactive) | 4.34 µM (inactive) | 2.24 µM (inactive) | > 10 µM (inactive) | 4.02 µM (inactive) | – | 1.87 µM (inactive) | – | 13.4 µM (inactive) | 2.69 µM (inactive) | 12.8 µM (inactive) | 3.79 µM (inactive) | 4.12 µM (inactive) | 2.08 µM (inactive) | 4.18 µM (inactive) | 4.28 µM (inactive)
C1CCC(OC2CSC2)OC1 (configuration not stated) | > 100 µM (inactive) | > 100 µM (inactive) | > 100 µM (inactive) | > 100 µM (inactive) | > 100 µM (inactive) | > 100 µM (inactive) | > 100 µM (inactive) | – | > 100 µM (inactive) | > 100 µM (inactive) | – | > 100 µM (inactive) | > 100 µM (inactive) | > 100 µM (inactive) | > 100 µM (inactive) | > 100 µM (inactive) | > 100 µM (inactive) | – | > 100 µM (inactive) | > 100 µM (inactive)
Cc1c2cnccc2c(C)c2c1c1ccccc1n2CCCCCCCl | > 31.6 µM (inactive) | > 50 µM (inactive) | 22.5 µM (inactive) | 29.4 µM (inactive) | 32.7 µM (inactive) | 35.1 µM (inactive) | 19.9 µM (inactive) | > 45.7 µM (inactive) | 26 µM (inactive) | > 10.5 µM (inactive) | > 50 µM (inactive) | 29.9 µM (inactive) | > 48.4 µM (inactive) | > 50 µM (inactive) | > 50 µM (inactive) | 48.9 µM (inactive) | 30 µM (inactive) | 13.2 µM (inactive) | 23.6 µM (inactive) | > 50 µM (inactive)
CCNc1nnc(-c2nsc3ccccc23)s1 | 8.83 µM (inactive) | – | – | 33.2 µM (inactive) | > 100 µM (inactive) | 31.3 µM (inactive) | > 100 µM (inactive) | > 100 µM (inactive) | 57.8 µM (inactive) | 86.5 µM (inactive) | > 100 µM (inactive) | 59.7 µM (inactive) | 88.3 µM (inactive) | > 100 µM (inactive) | > 100 µM (inactive) | – | > 100 µM (inactive) | 65.3 µM (inactive) | 24.7 µM (inactive) | > 100 µM (inactive)
